Assay results reported in PubChem BioAssay (NCI).
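Cultured in 96-well plates, cells were exposed to test compound for 48 hours across five concentrations. GI50 = concentration required for 50% inhibition of growth. TGI: total growth inhibition.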

Key:
Test in all cases: NCI tumour cell line growth inhibition, 48 h
PC-3 prostate = test system: PC-3 prostate
HS 578T breast = test system: HS 578T breast
NCI-H522 lung = test system: NCI-H522 lung
OVCAR-8 ovarian = test system: OVCAR-8 ovarian
HCT-116 colon = test system: HCT-116 colon
SNB-19 CNS = test system: SNB-19 CNS
HOP-62 NSCLC = test system: HOP-62 NSCLC
OVCAR-4 ovarian = test system: OVCAR-4 ovarian
U251 CNS = test system: U251 CNS
MDA-MB-435 = test system: MDA-MB-435

SMILES | GI50 (PC-3 prostate) [µM] | TGI (PC-3 prostate) [µM] | GI50 (HS 578T breast) [µM] | TGI (HS 578T breast) [µM] | GI50 (NCI-H522 lung) [µM] | TGI (NCI-H522 lung) [µM] | GI50 (OVCAR-8 ovarian) [µM] | TGI (OVCAR-8 ovarian) [µM] | GI50 (HCT-116 colon) [µM] | TGI (HCT-116 colon) [µM] | GI50 (SNB-19 CNS) [µM] | TGI (SNB-19 CNS) [µM] | GI50 (HOP-62 NSCLC) [µM] | TGI (HOP-62 NSCLC) [µM] | GI50 (OVCAR-4 ovarian) [µM] | TGI (OVCAR-4 ovarian) [µM] | TGI (U251 CNS) [µM] | GI50 (U251 CNS) [µM] | GI50 (MDA-MB-435) [µM] | TGI (MDA-MB-435) [µM]
CCCCCCCCCCCCCCCCCC[n+]1ccc2c(C)c3c(c(C)c2c1)c1cc(O)ccc1n3CC | 1.3 | 11 | 2.23 | 7.79 | 1.89 | 18.1 | 1.71 | 6.53 | 1.19 | 12.7 | 1.79 | 6.36 | 2.66 | 10.4 | 0.954 | 12 |  |  |  | 
Cc1[nH]c2ccccc2c1C(=O)CC1(O)C(=O)Nc2c(Cl)cc(Cl)cc21 (stereo unspecified) |  |  |  |  |  | 32.9 |  | 70.4 |  | > 100 |  | > 100 |  | > 100 |  | 21.8 | > 100 |  |  | 
Cc1ccc(-c2nnc(-c3nn(-c4ccccc4)c4nc5ccccc5nc34)o2)cc1 |  |  |  |  |  | 48.7 |  | 25.7 |  | 25 |  | 76 |  | 27.3 |  | 8.79 | 59.1 |  |  | 
CC1(O)C=CC(=O)C=C1 |  |  |  |  |  | 33.7 |  | > 68.8 |  | > 100 |  | 70.3 |  | > 79.9 |  | > 91.1 | 48.1 |  |  | 
COC(=O)C1(C)CCc2c(OC)ccc(OC)c2C1=O (stereo unspecified) |  |  |  |  |  | > 100 |  | > 100 |  | > 100 |  | > 100 |  | > 100 |  | > 100 | > 100 |  |  | 
O=C(/C=C\c1cccc([N+](=O)[O-])c1)/C=C/c1cccc([N+](=O)[O-])c1 | 3.17 | > 100 |  |  | 2.79 | 10.9 | 5.25 | > 100 | 0.2 | 0.407 | 16.4 | > 100 |  |  | > 100 | > 100 | 5.21 | 2.06 | 2.79 | 12.4
Cc1cccc(C)c1NC(=O)/C(=N/NC(N)=S)C(C)C(=O)c1ccc(Cl)cc1 (stereo unspecified) |  |  |  |  |  | > 100 |  | > 100 |  | > 100 |  | > 100 |  | > 100 |  | > 100 | > 100 |  |  | 
COc1cc2c(cc1OCCCn1c(-c3ccccn3)nc3ccccc31)N=C[C@@H]1CCCN1C2=O | 1.44 | > 30.6 |  |  | 1.76 | 6.81 | 0.957 |  | 1.35 | 7.56 | 3.61 | 18.1 | 2.92 | 9.57 | 3.39 | > 42.6 | 11.4 | 2.37 | 1.42 | 2.91
CCOC(=O)C1C(=S)NC(=O)C1C#N (stereo unspecified) |  |  |  |  |  | > 100 |  | > 100 |  |  |  | > 100 |  | > 100 |  | > 100 | > 100 |  |  | 
NC(CSC1c2ccccc2-c2ccccc21)C(=O)O (stereo unspecified) |  | > 100 |  | > 100 |  |  |  | > 100 |  | > 100 |  | > 100 |  | > 100 |  | > 100 | > 100 |  |  | > 100
N#CC1(C(N)=O)C(c2ccc(Cl)cc2)CC(=O)CC1c1ccc(Cl)cc1 (stereo unspecified) | 15.9 | 33.7 | 23.3 | 61.6 | 14.2 | 29.5 | 18.4 | 42.2 | 14.8 | 28 | 17.7 | 33.5 |  |  | 17.5 | 35.6 | 31.6 | 16.6 | 16.3 | 33.2
COc1cc2c3c(n(C)c(=O)c2cc1OC)-c1cc2c(cc1/C3=C\CCCCN1C(=O)c3ccccc3C1=O)OCO2 | 10.5 | 51.6 | 26.5 | > 100 |  |  | 17.1 | > 100 | 22.8 | > 100 | 36.6 | > 100 | 17.4 | 70.4 | 26 | > 100 | 25.8 | 10.6 | > 100 | > 100
O=C(NC1CCCCC1)NS(=O)(=O)c1ccc2c(c1)CCC2 |  |  |  |  |  | > 100 |  | > 100 |  |  |  | > 100 |  |  |  |  | > 100 |  |  | 
COc1cc(N2C(=O)[C@H](O)C2c2ccc(SC)cc2)cc(OC)c1OC (stereo partly specified) | < 0.01 | > 100 | < 0.01 | > 100 | < 0.01 |  | < 0.01 | 22.4 | < 0.01 | > 100 | < 0.01 | > 100 | < 0.01 | > 100 | 0.0275 | > 100 | > 100 | < 0.01 |  | 
O=C1c2c(c3c4ccccc4[nH]c3c3ccc4ccccc4c23)C(=O)N1CCN1CCNCC1 | 1.68 | 3.67 |  |  | 1.75 | 3.61 |  |  | 1.59 | 3.06 | 1.6 | 2.99 | 1.81 | 3.69 | 1.65 | 3.26 | 3.21 | 1.64 | 1.67 | 3.11
Cc1c(/C=N/N=C/c2[nH]c(C(=O)OC(C)(C)C)c(C)c2C)[nH]c(C(=O)OC(C)(C)C)c1C |  |  |  |  |  | > 100 |  | > 100 |  | > 100 |  | > 100 |  | > 100 |  | > 100 | > 100 |  |  | 
CCCCCCCCCCCCCCCCCC1=NCCN1CCOC1=C(Cl)C(=O)c2ccccc2C1=O | 1.85 | 4.27 |  |  | 1.79 | 3.38 | 1.95 | 4.43 | 1.82 | 3.43 | 3.56 | 11.5 | 1.77 | 3.27 |  |  | 3.67 | 1.87 | 2.05 | 4.02
O=C1C(=C([O-])c2ccccc2)C(=O)c2ccccc21.O=C1C(=C([O-])c2ccccc2)C(=O)c2ccccc21.[Fe+2] |  |  |  |  | > 100 | > 100 | 72.4 | > 100 | > 100 | > 100 | > 100 | > 100 | > 100 | > 100 | > 100 | > 100 | > 100 | 54.9 |  | 
CC#CCC1CCC(OCC)=CC1=O (stereo unspecified) |  |  |  |  |  | > 100 |  | > 100 |  | > 100 |  | > 100 |  | > 100 |  | > 100 | > 100 |  |  | 
